# According to patent US9518060B2, “Substituted pyrrolo[3,4-c]pyrazoles as PKC kinase inhibitors” (PFIZER INC., priority 2007, dated 2016):
# pKi: −log10 of the molar value. Structures can show the parent of a compound that is named as a salt.
# Biological target: Protein Kinase C beta 2 (PKCβII) (Homo sapiens (Human), UniProt P05771)
# Assay: PKCβII coupled spectrophotometric kinase assay (PK/LDH, NADH absorbance at 340 nm)
# Format: biochemical
# Conditions: apparent Ki, ATP competitive inhibition model (Morrison equation); 0.1 mM ATP, 5 nM PKC, 30° C.; read-out: Ki app
# Description: Protein Kinase C beta 2 (PKCβII) catalyzes the production of ADP from ATP that accompanies the phosphoryl transfer to the PKC Pseudosubstrate peptide (A→S, RFARKGSLRQKNV). This transfer is coupled to the oxidation of β-NADH through the activities of Pyruvate Kinase (PK) and Lactate Dehydrogenase (LDH). β-NADH conversion to NAD+ is monitored by the decrease in absorbance at 340 nm (e=6.22 cm^−1 mM^−1) using a Molecular Devices SPECTRA max PLUS spectrophotometer.
# A typical assay was carried out on a 96-well, clear microtiter plate in a Molecular Devices spectrophotometer for 20 minutes at 30° C. in 0.1 mL of assay buffer containing 50 mM HEPES, pH 7.4, 5 nM PKC, 23 units of pyruvate kinase, 33 units of lactate dehydrogenase, 0.15 mM peptide, 0.1 mM ATP, 1 mM DTT, 4 mM PEP, 8 mM MgCl2, 0.3 mM NADH, 60 mM CaCl2, 10 mg/mL PS, 50 ng/mL PMA, 7.5% DMSO and from about 10,000 nM to 0.169 nM compound inhibitor. Stock solutions of 3-sn-phosphatidyl-L-serine (PS) and phorbol-12-myristate-13-acetate (PMA) were sonicated for 30 seconds just prior to addition to assay buffer and assays were initiated by the addition of 100 μM ATP.
# Steady-state kinetic parameters for the bi-bi kinase reaction were determined at saturating phospho-acceptor peptide substrate concentration (0.15 mM) by fitting initial velocity data to the Michaelis-Menten equation, v=Vmax[S]/(KM+[S]) where v is the measured initial velocity, Vmax is the maximal enzyme velocity, [S] is the ATP substrate concentration, and KM is the Michealis constant for ATP. Enzyme turnover values (kcat) were calculated according to […], where [E] is the total enzyme concentration. Enzyme inhibition constants (apparent Ki values) were determined by fitting initial velocities at variable inhibitor concentrations to a model for ATP competitive inhibition based on the Morrison equation). Morrison, J. F., Biochim. Biophys Acta 185: 269-286 (1969).
# Protein Kinase C beta 2 (PKCβII), sequence (P05771 other isoform, or with tags, fused parts or gaps): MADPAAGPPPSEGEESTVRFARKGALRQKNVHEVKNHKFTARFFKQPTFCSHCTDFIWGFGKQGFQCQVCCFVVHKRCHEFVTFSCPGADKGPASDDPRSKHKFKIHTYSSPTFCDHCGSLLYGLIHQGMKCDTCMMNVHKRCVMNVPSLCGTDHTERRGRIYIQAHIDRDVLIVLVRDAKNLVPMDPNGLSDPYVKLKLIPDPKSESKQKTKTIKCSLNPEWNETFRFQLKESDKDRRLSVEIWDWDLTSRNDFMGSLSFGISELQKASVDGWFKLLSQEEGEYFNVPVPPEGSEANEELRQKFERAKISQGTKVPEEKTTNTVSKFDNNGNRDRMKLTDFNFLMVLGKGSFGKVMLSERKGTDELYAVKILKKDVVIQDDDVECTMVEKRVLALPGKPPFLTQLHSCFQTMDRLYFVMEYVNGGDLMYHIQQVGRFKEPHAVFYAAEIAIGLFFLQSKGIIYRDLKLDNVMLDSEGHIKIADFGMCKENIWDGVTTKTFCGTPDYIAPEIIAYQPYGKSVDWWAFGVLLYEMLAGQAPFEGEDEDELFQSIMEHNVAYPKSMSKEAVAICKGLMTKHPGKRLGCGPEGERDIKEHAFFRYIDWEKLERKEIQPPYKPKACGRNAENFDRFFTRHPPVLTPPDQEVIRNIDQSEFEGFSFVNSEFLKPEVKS
row,SMILES,pKi
1,"COCc1ncc(F)c(Nc2n[nH]c3c2CN(C(=O)N2C[C@@H](C)N(CC4CCOCC4)C[C@@H]2C)C3(C)C)n1 [Example N1, 5-{[(2S,5R)-2,5-dimethyl-4-(tetrahydro-2H-pyran-4-ylmethyl)piperazin-1-yl]carbonyl}-N-[5-fluoro-2-(methoxymethyl)pyrimidin-4-yl]-6,6-dimethyl-1,4,5,6-tetrahydropyrrolo[3,4-c]pyrazol-3-amine]",> 8.00
2,"CCNc1ncc(F)c(Nc2n[nH]c3c2CN(C(=O)C2(F)CCN(C)CC2)C3(C)C)n1 [Example C1, N^2-ethyl-5-fluoro-N^4-{5-[(4-fluoro-1-methylpiperidin-4-yl)carbonyl]-6,6-dimethyl-1,4,5,6-tetrahydropyrrolo[3,4-c]pyrazol-3-yl}pyrimidine-2,4-diamine]",7.48
3,"Cc1cccc(Nc2n[nH]c3c2CN(C(=O)N2C[C@]4(C)CCCN4C[C@@H]2C)C3(C)C)n1 [Example J7, 5-{[(3S,8aS)-3,8a-dimethylhexahydropyrrolo[1,2-a]pyrazin-2(1H)-yl]carbonyl}-6,6-dimethyl-N-(6-methylpyridin-2-yl)-1,4,5,6-tetrahydropyrrolo[3,4-c]pyrazol-3-amine]",6.95
4,"CCOc1ncc(F)c(Nc2n[nH]c3c2CN(C(=O)N2C[C@@H](C)N(CC4(O)CCOCC4)C[C@@H]2C)C3(C)C)n1 [Example K22, 4-[((2R,5S)-4-{[3-[(2-ethoxy-5-fluoropyrimidin-4-yl)amino]-6,6-dimethyl-4,6-dihydropyrrolo[3,4-c]pyrazol-5(1H)-yl]carbonyl}-2,5-dimethylpiperazin-1-yl)methyl]tetrahydro-2H-pyran-4-ol]",7.82
5,"CCNc1ncc(F)c(Nc2n[nH]c3c2CN(C(=O)N2C[C@@H](C)N(CC4CCOCC4)C[C@@H]2C)C3(C)C)n1 [Example A11, N^4-(5-{[(2S,5R)-2,5-dimethyl-4-(tetrahydro-2H-pyran-4-ylmethyl)piperazin-1-yl]carbonyl}-6,6-dimethyl-1,4,5,6-tetrahydropyrrolo[3,4-c]pyrazol-3-yl)-N^2-ethyl-5-fluoropyrimidine-2,4-diamine]",> 8.00
6,"CCOc1ncc(F)c(Nc2n[nH]c3c2CN(C(=O)N2CCN4CCC[C@@H]4C2)C3(C)C)n1 [Example K14, [3-(2-Ethoxy-5-fluoro-pyrimidin-4yl-amino)-6,6-dimethyl-4,6-dihydro-1H-pyrrolo[3,4-c]pyrazol-5-yl]-(R)-hexahydro-pyrrolo[1,2-a]pyrazin-2-yl-methanone]",7.14
7,"CCOc1ncc(F)c(Nc2n[nH]c3c2CN(C(=O)N2CCN(C)[C@H](C)C2)C3(C)C)n1 [Example K17, 5-{[(3R)-3,4-dimethylpiperazin-1-yl]carbonyl}-N-(2-ethoxy-5-fluoropyrimidin-4-yl)-6,6-dimethyl-1,4,5,6-tetrahydropyrrolo[3,4-c]pyrazol-3-amine]",7.35
8,"CCOc1ncc(F)c(Nc2n[nH]c3c2CN(C(=O)N2C[C@@H]4CCCN4C[C@@H]2C(C)C)C3(C)C)n1 [Example K20, N-(2-ethoxy-5-fluoropyrimidin-4-yl)-5-{[(3S,8aS)-3-isopropylhexahydropyrrolo[1,2-a]pyrazin-2(1H)-yl]carbonyl}-6,6-dimethyl-1,4,5,6-tetrahydropyrrolo[3,4-c]pyrazol-3-amine]",7.59
9,"CCNc1ncc(F)c(Nc2n[nH]c3c2CN(C(=O)N2C[C@@H](C)N(C4CCOCC4)C[C@@H]2C)C3(C)C)n1 [Example A12, N^4-(5-{[(2S,5R)-2,5-dimethyl-4-(tetrahydro-2H-pyran-4-yl)piperazin-1-yl]carbonyl}-6,6-dimethyl-1,4,5,6-tetrahydropyrrolo[3,4-c]pyrazol-3-yl)-N^2-ethyl-5-fluoropyrimidine-2,4-diamine]",> 8.00
10,"COc1ncc(F)c(Nc2n[nH]c3c2CN(C(=O)N2CC(CCO)N(C)C[C@@H]2C)C3(C)C)n1 (single isomer, unassigned) [Example K26]",7.26
11,"CCOc1ncc(F)c(Nc2n[nH]c3c2CN(C(=O)N2C[C@@H](C)N(CC)C[C@@H]2C)C3(C)C)n1 [Example K2, N-(2-ethoxy-5-fluoropyrimidin-4-yl)-6,6-dimethyl-5-{[4-ethyl(2S,5R)-2,5-dimethylpiperazin-1-yl]carbonyl}-1,4,5,6-tetrahydropyrrolo[3,4-c]pyrazol-3-amine]",8.68
12,"CNc1ncc(F)c(Nc2n[nH]c3c2CN(C(=O)N2CC(C)(C)N(C)C[C@@H]2C)C3(C)C)n1 [Example A6, N^4-(6,6-dimethyl-5-{[(2S)-2,4,5,5-tetramethylpiperazin-1-yl]carbonyl}-1,4,5,6-, tetrahydropyrrolo[3,4-c]pyrazol-3-yl)-5-fluoro-N^2-methylpyrimidine-2,4-diamine]",7.97
13,"C[C@H]1CN(C)C(C)(C)CN1C(=O)N1Cc2c(Nc3nc(NCC4CC4)ncc3F)n[nH]c2C1(C)C [Example A3, N^2-(cyclopropylmethyl)-N^4-(6,6-dimethyl-5-{[(2S)-2,4,5,5-tetramethylpiperazin-1-yl]carbonyl}-1,4,5,6-tetrahydropyrrolo[3,4-c]pyrazol-3-yl)-5-fluoropyrimidine-2,4-diamine]",7.75
14,"Cc1ncc(F)c(Nc2n[nH]c3c2CN(C(=O)N2C[C@@H](C)N(C)C[C@@H]2C)C3(C)C)n1 [Example H2, N-(5-fluoro-2-methylpyrimidin-4-yl)-6,6-dimethyl-5-{[(2S,5R)-2,4,5-trimethylpiperazin-1-yl]carbonyl}-1,4,5,6-tetrahydropyrrolo[3,4-c]pyrazol-3-amine]",7.74
15,"CCNc1ncc(F)c(Nc2n[nH]c3c2CN(C(=O)N2C[C@@H](C)N(CCOC)C[C@@H]2C)C3(C)C)n1 [Example B4, N^2-ethyl-5-fluoro-N4-(5-{[(2S,5R)-4-(2-methoxyethyl)-2,5-dimethylpiperazin-1-yl]carbonyl}-6,6-dimethyl-1,4,5,6-tetrahydropyrrolo[3,4-c]pyrazol-3-yl)pyrimidine-2,4-diamine]",7.87
16,"CCOc1ncc(F)c(Nc2n[nH]c3c2CN(C(=O)N2C[C@@H](C)N(C4CCOCC4)C[C@@H]2C)C3(C)C)n1 [Example K21, 5-{[(2S,5R)-2,5-dimethyl-4-(tetrahydro-2H-pyran-4-yl)piperazin-1-yl]carbonyl}-N-(2-ethoxy-5-fluoropyrimidin-4-yl)-6,6-dimethyl-1,4,5,6-tetrahydropyrrolo[3,4-c]pyrazol-3-amine]",> 8.00
17,"C[C@@H]1CN(C(=O)N2Cc3c(Nc4nc(OCC(F)(F)F)ncc4F)n[nH]c3C2(C)C)[C@@H](C)CN1C [Example K7, N-[5-fluoro-2-(2,2,2-trifluoroethoxy)pyrimidin-4-yl]-6,6-dimethyl-5-{[(2S,5R)-2,4,5-trimethylpiperazin-1-yl]carbonyl}-1,4,5,6-tetrahydropyrrolo[3,4-c]pyrazol-3-amine]",9.78
18,"Cc1cccc(Nc2n[nH]c3c2CN(C(=O)C2(F)CCN(C)CC2)C3(C)C)n1 [Example J2, 5-[(4-fluoro-1-methylpiperidin-4-yl)carbonyl]-6,6-dimethyl-N-(6-methylpyridin-2-yl)-1,4,5,6-tetrahydropyrrolo[3,4-c]pyrazol-3-amine]",7.22
19,"CC(C)CNc1ncc(F)c(Nc2n[nH]c3c2CN(C(=O)N2CC(C)(C)N(C)C[C@@H]2C)C3(C)C)n1 [Example A4, N^4-(6,6-dimethyl-5-{[(2S)-2,4,5,5-tetramethylpiperazin-1-yl]carbonyl}-1,4,5,6-, tetrahydropyrrolo[3,4-c]pyrazol-3-yl)-5-fluoro-N^2-isobutylpyrimidine-2,4-diamine acetate salt]",7.42
20,"C[C@H]1CN(C)C(C)(C)CN1C(=O)N1Cc2c(Nc3ccnc(N(C)C)n3)n[nH]c2C1(C)C [Example A9, N^4-(6,6-dimethyl-5-{[(2S)-2,4,5,5-tetramethylpiperazin-1-yl]carbonyl}-1,4,5,6-tetrahydropyrrolo[3,4-c]pyrazol-3-yl)-N^2,N^2-dimethylpyrimidine-2,4-diamine]",8.01
21,"CCOc1ncc(F)c(Nc2n[nH]c3c2CN(C(=O)N2C[C@@H](C)N(C)C[C@@H]2C)C3(C)C)n1 [Example K1, N-(2-ethoxy-5-fluoropyrimidin-4-yl)-6,6-dimethyl-5-{[(2S,5R)-2,4,5-trimethylpiperazin-1-yl]carbonyl}-1,4,5,6-tetrahydropyrrolo[3,4-c]pyrazol-3-amine]",8.95
22,"COc1ccnc(Nc2n[nH]c3c2CN(C(=O)N2C[C@@H](C)N(C4CCOCC4)C[C@@H]2C)C3(C)C)n1 [Example J11, 5-{[(2S,5R)-2,5-dimethyl-4-(tetrahydro-2H-pyran-4-yl)piperazin-1-yl]carbonyl}-N-(4-methoxypyrimidin-2-yl)-6,6-dimethyl-1,4,5,6-tetrahydropyrrolo[3,4-c]pyrazol-3-amine]",> 8.00
